In patent US20180207228A1, “PEPTIDE COMBINATIONS AND USES THEREOF FOR TREATING GRASS ALLERGY” (ALK-Abelló A/S, priority 2015, published 2018):
Where no end group is shown, it is not given here.

What was measured:
Assay type in all cases: cell-based, human
[1] = system: grass pollen allergic donor derived TCL-03 lines; experiment: Extended cross-reactivity study, proliferation on TCL03 DK1+DK2 (Study XR2), scoring; conditions: study XR2; for Cross-reactivity score, Dac g: homologue from Dac g; for Cross-reactivity score, Dac g / Cross-reactivity score, Fes p / Cross-reactivity score, Lol p / Cross-reactivity score, Pha a / Cross-reactivity score, Poa p / Cross-reactivity score, Cyn d / Cross-reactivity score, Pas n / Cross-reactivity score, Sor h: score 0 to 7; for Cross-reactivity score, Fes p: homologue from Fes p; for Cross-reactivity score, Lol p: homologue from Lol p; for Cross-reactivity score, Pha a: homologue from Pha a; for Cross-reactivity score, Poa p: homologue from Poa p; for Cross-reactivity sum: scores of all species added; for Cross-reactivity/species: sum divided by the number of species measured; for Cross-reactivity score, Cyn d: homologue from Cyn d; for Cross-reactivity score, Pas n: homologue from Pas n; for Cross-reactivity score, Sor h: homologue from Sor h
[2] = system: release of IL-5 upon T cell activation; experiment: Fluorospot assay, IL-5 release (DK1-TCL01, US1-TCL01); conditions: head prints TCL-02 DK1; text: 25 TCL-01 DK1 lines
Summary of the method: (§1)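 Grass-allergic donors' CD8-depleted PBMCs were expanded 14 days with natural grass allergens plus IL-2 to give TCL01 lines. These were incubated 20 h at 37° C with single peptides or peptide mixes at 2 μg/ml, and spot-forming cells were counted. Hit: SI≥2, p≤0.05, Poisson ≤0.05, ≥20 SFC/10^6 cells.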

[3] = system: release of IFN-γ upon T cell activation; experiment: Fluorospot assay, IFN-γ release (DK1-TCL01, US1-TCL01); conditions: head prints TCL-02 DK1; 17 TCL-01 DK1 lines
Summary of the method: as §1

Row | Substance | Cross-reactivity score, Dac g [1] | Cross-reactivity score, Fes p [1] | Cross-reactivity score, Lol p [1] | Cross-reactivity score, Pha a [1] | Cross-reactivity score, Poa p [1] | Cross-reactivity sum [1] | Cross-reactivity/species [1] | IL-5-Fluorospotr % donor coverage (TCL-02 DK1) [2] [%] | IFN-gamma % donor coverage (TCL-02 DK1) [3] [%] | Cross-reactivity score, Cyn d [1] | Cross-reactivity score, Pas n [1] | Cross-reactivity score, Sor h [1]
1 | AYESYKFIPALEAAVKQAYA-OH [peptide 285] | 6 | 6 | 6 | 6 | 7 | 31 | 6.2 |  |  |  |  | 
2 | PANDKFTVFEAAFNNAIKAS-OH [compound 70] |  |  |  |  |  |  |  | 16.00 | 0.00 |  |  | 
3 | STGGAYESYKFIPALEAAVK-OH [compound 71] | 5 | 5 | 5 | 5 | 4 | 24 | 4.8 | 32.00 | 0.00 |  |  | 
4 | TDDNEEPIAPYHFDLSGHAF-OH [peptide 204] | 7 | 7 | 7 | 7 | 1.5 | 34 | 4.25 |  |  | 1.5 | 1 | 2
5 | VATLSEALRIIAGTLEVHAV-OH [compound 67] |  |  |  |  |  |  |  | 32.00 | 4.00 |  |  | 
6 | WGAIWRIDTPDKLTGPFTVR-OH [peptide 211] | 5 | 4 | 4 | 7 | 3 | 25 | 3.12 |  |  | 0.5 | 1 | 0.5
